Literature values in PMC5882164, “A novel calcimimetic agent, evocalcet (MT-4580/KHK7580), suppresses the parathyroid cell function with little effect on the gastrointestinal tract or CYP isozymes in vivo and in vitro” (PLoS ONE, 2018).
Where a name gives a salt, the structure may show the parent alone.

Conditions: rats; no reference given; cited from earlier work

SMILES: C[C@@H](NCCCc1cccc(C(F)(F)F)c1)c1cccc2ccccc12 [cinacalcet, Cinacalcet hydrochloride, reference compound]
- bioavailability: 1%-2%
